Measurements published in ChEMBL document CHEMBL3286297, “Design, synthesis and antiproliferative activity of a novel class of indole-2-carboxylate derivatives” (Eur J Med Chem, 2014).
The source made the active and inactive calls. The calls are words filed in the database; no cut-off is given here.

What was measured:
Assay type in all cases: functional, cell-based
HepG2 = assay: Antiproliferative against human HepG2 cells after 48 hrs by MTT assay; details: HepG2, 48 h
A549 [1] = assay: Antiproliferative against human A549 cells after 48 hrs by MTT assay; details: A549, 48 h
MCF7 = assay: Antiproliferative against human MCF7 cells after 48 hrs by MTT assay; details: MCF7, 48 h
A549 [2] = assay: Cell cycle arrest in human A549 cells assessed as accumulation at G2/M phase after 48 hrs by flow cytometric analysis
A549 [3] = assay: Cell cycle arrest in human A549 cells assessed as accumulation at G1 phase after 48 hrs by flow cytometric analysis
A549 [4] = assay: Induction of reactive oxygen species generation in human A549 cells after 48 hrs by […]
A549 [5] = assay: Induction of apoptosis in human A549 cells assessed as […] cleavage after 48 hrs by Western blot analysis
A549 [6] = assay: Induction of reactive oxygen species generation in human A549 cells at 200 uM after 48 hrs by […]

| Compound | IC50 (HepG2) [µM] | IC50 (A549 [1]) [µM] | IC50 (MCF7) [µM] | Activity (A549 [2]) | Activity (A549 [3]) | Activity (A549 [4]) | Activity (A549 [5]) | Activity (A549 [6]) |
| --- | --- | --- | --- | --- | --- | --- | --- | --- |
| COC(=O)c1cc2c(OCC(C)C)cc(N)cc2[nH]1 | 68.9 | 11.4 | 97.4 |  |  |  |  |  |
| C=CCOc1cc(N)cc2[nH]c(C(=O)OC)cc12 | > 200 | > 200 | > 200 |  |  |  |  |  |
| COc1cc([C@@H]2c3cc4c(cc3[C@@H](O[C@@H]3O[C@@H]5CO[C@@H](C)O[C@H]5[C@H](O)[C@H]3O)[C@H]3COC(=O)[C@H]23)OCO4)cc(OC)c1O [ETOPOSIDE] | 13.7 | 242 | 81.1 |  |  |  |  |  |
| COC(=O)c1cc2c(OC(C)C)cc(OC)cc2[nH]1 | 3.8 | 24.1 | 6.38 | Dose-dependent effect | Dose-dependent effect | Dose-dependent effect | Dose-dependent effect |  |
| COC(=O)c1cc2c(OCc3ccc(F)cc3)cc(N)cc2[nH]1 | > 200 | > 200 | > 200 |  |  |  |  |  |
| CC(=O)O[C@H]1C(=O)[C@@]2(C)[C@H]([C@H](OC(=O)c3ccccc3)[C@]3(O)C[C@H](OC(=O)[C@H](O)[C@@H](NC(=O)c4ccccc4)c4ccccc4)C(C)=C1C3(C)C)[C@]1(OC(C)=O)CO[C@@H]1C[C@@H]2O [PACLITAXEL] | 0.0673 | 1.53 | 0.0258 |  |  |  |  |  |
| COC(=O)c1cc2c(OCC3CCCCC3)cc(OC)cc2[nH]1 | > 200 | 107 | 81.1 |  |  |  |  |  |
| COC(=O)c1cc2c(OCC3CCCCC3)cc(N)cc2[nH]1 | 14.5 | 3.98 | 3.78 | Dose-dependent effect | Dose-dependent effect | Dose-dependent effect | Dose-dependent effect |  |
| COC(=O)c1cc2ccc(N)cc2[nH]1 | > 200 | > 200 | > 200 |  |  |  |  |  |
| CCCCOc1c(OCC)ccc2[nH]c(C(=O)OC)cc12 | 168 | 102 | > 200 |  |  |  |  |  |
| CCCCOc1cccc2[nH]c(C(=O)OC)cc12 | > 200 | 87.1 | > 200 |  |  |  |  |  |
| COC(=O)c1cc2c(OCc3ccccc3)cc(N)cc2[nH]1 | > 200 | > 200 | > 200 |  |  |  |  |  |
| COC(=O)c1cc2c(OC(C)C)cccc2[nH]1 | > 200 | > 200 | > 200 |  |  |  |  |  |
| COC(=O)c1cc2ccc(N(C)C)cc2[nH]1 | > 200 | > 200 | > 200 |  |  |  |  |  |
| CCOc1ccc2[nH]c(C(=O)OC)cc2c1OCC1CCCCC1 | > 200 | 65.2 | > 200 |  |  |  |  |  |
| CCCOc1c(OCC)ccc2[nH]c(C(=O)OC)cc12 | 63.5 | > 200 | > 200 |  |  |  |  |  |
| COC(=O)c1cc2c(O)cc(N)cc2[nH]1 | > 200 | > 200 | > 200 |  |  |  |  |  |
| CCCCOc1cc(OC)cc2[nH]c(C(=O)OC)cc12 | > 200 | 40.4 | 41.8 |  |  |  |  |  |
| COC(=O)c1cc2c(OCC3CCCCC3)cccc2[nH]1 | > 200 | 31.1 | 89.8 |  |  |  |  |  |
| COC(=O)c1cc2c(OCC(C)C)cccc2[nH]1 | > 200 | 51.4 | > 200 |  |  |  |  |  |
| COC(=O)c1cc2c(OC)cccc2[nH]1 | > 200 | > 200 | > 200 |  |  |  |  |  |
| CCCOc1cccc2[nH]c(C(=O)OC)cc12 | > 200 | > 200 | > 200 |  |  |  |  |  |
| CCCOc1cc(OC)cc2[nH]c(C(=O)OC)cc12 | > 200 | 25.4 | 18.8 |  |  |  |  |  |
| COC(=O)c1cc2c(OCC(C)C)cc(NC(C)=O)cc2[nH]1 | > 200 | > 200 | > 200 |  |  |  |  |  |
| COC(=O)c1cc2c(OCC3CCCCC3)cc(NC(C)=O)cc2[nH]1 | > 200 | > 200 | > 200 |  |  |  |  |  |
| O=C(O)c1cc(C(=O)O)c2c(n1)C(=O)C(=O)c1cc(C(=O)O)[nH]c1-2 [PYRROLOQUINOLINE QUINONE] | 45.7 | 750 | 25.5 |  |  |  |  | Active |
